Data from patent publication US8735167B2, “Photoinduced signal amplification through externally sensitized photofragmentation in masked photosensitizers and photoamplified fluorescence turn-off system” (Colorado Seminary, which owns and operates The University …, priority 2007, dated 2014).
Each block holds one compound with its values, some of them ahead of it.

How the values were obtained:
[1] = Pulse Field Gradient 19F NMR diffusion in N-n-octadecylurea organogels made in t-butyl benzene; assay type: physicochemical
From the text: The PFG NMR experiments allow for measuring diffusion coefficients of molecules of interest in complex mixtures, including gels. The successful photoamplification relies on adequate diffusion coefficients. The diffusion coefficients obtained for 4-trifluoromethylbenzophenone in gelated tert-butylbenzene and other solvents were within 10-15% of that in free (not gelated) solvents, which means that the gelation has no detrimental effect on photochemistry.

[2] = 19F PFG NMR diffusion in ionic liquid; assay type: physicochemical; details: in N-methyl-N,N,N-trioctylammonium bis-triflylamide
From the text: Another use of ionic liquids for photoamplified bioanalytical methods is for electrochemical detection. […] Unmasking of the sensitizer dramatically changes the redox properties of the system which can be utilized in electrochemical detection of photoamplification. Again, as mentioned above, ionic liquids can be gelated and used in a form of pixilated bioanalytical array. […] The ^19F PFG NMR measurements of diffusion of 4-(trifluoromethyl)benzophenone in N-methyl-N,N,N-trioctylammonium bis-triflylamide produced the translational diffusion coefficient of 9×10^−7 cm^2 s^−1, which is still adequate for bimolecular collisional quenching of triplet benzophenone, necessary for the photoamplification. N-Methyl-N,N,N-trioctylammonium bis-triflylamide is the most viscous ionic liquid which we tested in our experiments. Other, much less viscous ionic liquids, for example N,N-dimethyl-N,N-dihexylammonium bis-triflylamide, performed even better.

[3] = in non-polar solvents; cited from earlier work
[4] = Stern-Volmer fluorescence quenching of fluorene; assay type: physicochemical; set-up: unit not given here; details: fluorene 10^−5 M, in CH2Cl2
[5] = Stern-Volmer fluorescence quenching of p-terphenyl; assay type: physicochemical; set-up: unit not given here; details: p-terphenyl 10^−5 M
From the text: p-Oligophenylenes are known as durable fluorophores, and commonly used as a dye in dye lasers due to their resistance to photobleaching, a desirable characteristic for this application.

[6] = near diffusion controlled; previously shown; cited from earlier work

Compound: c1ccc2c(c1)Cc1ccccc1-2 [Fluorene]
fluorescence lifetime [3]: 10 ns

Compound: CC1(C(O)(c2ccccc2)c2ccccc2)SCCCS1 [MDT BP adduct, 2-methyl-1,3-dithiane benzophenone adduct]
Ksv, fluorescence quenching of fluorene [4]: 2300
Ksv, fluorescence quenching of p-terphenyl ([5]; in CH2Cl2): 80
Ksv, fluorescence quenching of p-terphenyl ([5]; in t-BuPh): 40
rate of quenching of benzophenone triplet via electron transfer reduction [6]: 10^9 M^−1 s^−1

Compound: CC1SCCCS1 [dithiane, 2-methyl-1,3-dithiane]
Ksv, fluorescence quenching of p-terphenyl ([5]; in CH2Cl2): smaller than for MDT BP adduct

Next, values leading:

Diffusion Coefficient ([1]; 0 % N-n-Octadecylurea, t-butyl benzene): 6.50 × 10^−6 cm^2 s^−1
Diffusion Coefficient ([1]; 2 % N-n-Octadecylurea, t-butyl benzene organogel): 5.32 × 10^−6 cm^2 s^−1
Diffusion Coefficient ([1]; 4 % N-n-Octadecylurea, t-butyl benzene organogel): 5.60 × 10^−6 cm^2 s^−1
Diffusion Coefficient ([1]; 6 % N-n-Octadecylurea, t-butyl benzene organogel): 5.34 × 10^−6 cm^2 s^−1
Difference of diffusion coefficient in gelated solvent from that in free (not gelated) solvent ([1]; gelated tert-butylbenzene and other solvents): 10-15%
translational diffusion coefficient [2]: 9×10^−7 cm^2 s^−1
Compound: O=C(c1ccccc1)c1ccc(C(F)(F)F)cc1 [4-trifluoromethyl-benzophenone, 4-trifluoromethylbenzophenone]

Ksv, fluorescence quenching of p-terphenyl ([5]; in CH2Cl2): smaller than for MDT BP adduct
Compound: OC(c1ccccc1)c1ccccc1 [benzhydrol]
